Data on one compound can be found in US20140023715A1, “POLYMER CONJUGATES TARGETING CELLS AND METHODS RELATED THERETO” (EMORY UNIVERSITY, priority 2011, published 2014).

For one assay, the system named is MIA PaCa-2 cells. The experiment in a line: Cell proliferation, Crystal violet assay, 96 h. In kind it is cell-based. As to conditions: Homo sapiens.
The subject of assay [1] is MIA PaCa-2 orthotopic pancreatic tumor. The experiment in a line: Tumor growth inhibition in mice bearing orthotopic MIA PaCa-2 pancreatic cancer. It is filed as in vivo. The following applies: i.v., gemcitabine-equivalent 2 mg/kg, five times. On the procedure: (a) Mean tumor weight (blue bar) of non-, gemcitabine-, Gem-IONP, and ATF-Gem-IONPs treated MIA PaCa-2 bearing mice and individual weight distribution in every group (various symbols). Mice were given by i.v. injection of gemcitabine-equivalent dose of 2 mg/kg five times at 3- or 4-day intervals. At the end of the experimental period, tumor tissues were isolated and weighed. Values represent mean±S.D. for 16 mice. *Statistically significant difference vs. control, p<0.0001. **Statistically significant difference vs. gemcitabine and […] groups, p<0.05. (b) Representative tumor images of each group after dissection.
The tumor growth inhibition effect of ATF-Gem-IONPs was studied using female mice bearing orthotopical pancreatic cancer from an uPAR positive human pancreatic cancer cell line, MIA PaCa-2. NPs were administered five times at twice a week and the dose of ATF-Gem-IONPs was calculated based on gemcitabine-equivalence. Tumors were weighed at the end of the experiment, and average tumor weight was compared between groups (FIG. 4A). All of treated groups inhibited tumor growth compared to non-treated control group. […] Tumor weights agreed well tumor volumes results (FIG. 4B).

Broadly, the viability is the share of living cells, or the viability signal relative to a control. Broadly, the IC50 is the concentration that inhibits the measured activity by half.

Take `Nc1ccn([C@@H]2O[C@H](CO)[C@@H](O)C2(F)F)c(=O)n1` [gemcitabine]: the viability at 1 µM with MIA PaCa-2 cells (gemcitabine equivalent concentration of 1 μM) was 39%. Also, in the assay on MIA PaCa-2 cells (gemcitabine-equivalent), the IC50 is 0.498 µM. For the same compound, in assay [1], the “tumor growth inhibition compared to non-treated control (tumor weight)” value turned out to be 30%.
